In one experiment the test system is Balb/c mice. Kind of experiment: Murine Delayed-type-Hypersensitivity (DTH) Model. It is filed as in vivo. Particulars: Mus musculus, iv; ear swelling after DNFB challenge; 0.3 mg/kg intravenously once daily; measured within 24 to 48 hours after ear challenge. On the procedure: Balb/c mice were sensitized by application of 20 μl of 0.5% of DNFB dissolved in acetone/olive oil to their footpads on day 0 and day 1. On day 5 animals are dosed intravenously with 0.3 mg/kg of test compound (or a negative control). Fifteen minutes later, 10 μl of 0.8% of DNFB dissolved in acetone/olive oil is topically applied externally on the right ear of the animal. As a control, the left ear is treated the same way with vehicle alone (acetone/olive oil).
The compounds (controls and test) are administered once daily until the completion of the study.
Within 24 to 48 hours after ear challenge, animals are anesthetized with isoflurane and the ear swelling is measured using a micrometer. The micrometer calipers are closed around the top portion of the each external ear until resistance from the ear is felt. Usually, the peak of the ear swelling happens around 48 hours after challenge.
Percent inhibition is determined in a similar manner as described for the CII model, above.

The subject of another experiment is Lewis rats. Kind of experiment: Rat Collagen-induced Arthritis (rCIA) Model. Type of experiment: in vivo. The conditions noted are these: paw swelling, bovine type II collagen-induced arthritis, oral gavage 0.3 mg/kg BID from day 8, day of peak disease, typically day 17. On the procedure:
Two-month-old, female Lewis rats (Charles River Labs) were anesthetized with 3-5% isoflurane and arthritis was induced by intradermal injection of 0.3 ml (100 μl at three different sites) of an emulsion containing 1.5 mg/ml of bovine type II collagen (CII) (Elastin Products Co. Inc. Owensville, Mo.) in Incomplete Freund's Adjuvant (IFA) (Difco Laboratories, Detroit, Mich.) on day 0 at the base of the tail using a 30 gauge needle. A second injection was given on day 6. Control rats were injected with an equal amount of IFA only.
Test compounds of Formula I are formulated by diluting concentrated ethanol stock solutions with phosphate buffered saline (PBS) and dosed by oral gavage at 0.3 mg/kg twice a day (BID). Dosing was initiated on day 8 and continued to the end of the study, generally day 19 or day 20. Control animals were administered PBS alone.
The volume of both hind paws were measured using a water displacement plethysmometer (Ugo Basile, Biological Research Apparatus, Italy), and the onset of arthritis was indicated by increased paw volume, which appears approximately on day 11 post injection. Both paw volumes and body weights are measured throughout the study every 2-3 days. Nineteen to twenty-one days after CII injection, the rats are euthanized with CO2. Blood is collected by cardiac puncture and serum is saved. Both hind ankles are collected in 10% buffered formalin and saved (they can later be processed for histology).
Percent inhibition values were measured as follows. First, the magnitude of disease effect was calculated by taking the difference in paw swelling between control animals and animals that had not been administered CII (“untreated effect”). Then, the difference is paw swelling between the compound-treated animals and the animals that had not been administered CII was determined (“treated effect”). The difference between the untreated effect and the treated effect is then divided by the […] and multiplied by 100 to arrive at percent inhibition. Percent inhibition reported was from day of “peak” or maximal disease (manifested by maximum paw swelling), typically day 17.

The inhibition in vivo is the percentage by which the read-out fell short of the control. Read a low inhibition in vivo as a weak effect. Take `O=C(O)CCC[C@H](O)C#C/C=C/C=C/[C@H](O)Cc1ccc(F)cc1` [Compound 303]: the inhibition in vivo at 0.3 mg/kg in the experiment with Balb/c mice worked out at 21%; with Lewis rats, 0%. In the same order, the values of `C#CC[C@@H](O)/C=C/C=C/C#CC(F)(F)CCCC(=O)O` [Compound 320] are 35% and 18%. In the same order, the values of `C#CC[C@@H](O)/C=C/C=C/C#C[C@H](O)CCCC(=O)O` [Compound 323] are 46% and 38%. In the same order, the values of `C#CCC/C=C/C=C/C#C[C@@H](O)CCCC(=O)O` [Compound 302] are 24% and 37%.

`C#CC[C@@H](O)/C=C/C=C/C#CCCCCC(=O)O` [Compound 301]: the figures for the inhibition in vivo at 0.3 mg/kg in the experiment on Balb/c mice and with Lewis rats were 15% and 11%, respectively. For `O=C(O)CC[C@H](O)C#C/C=C/C=C/[C@H](O)CC1CC1` [Compound 315], the values for the inhibition in vivo at 0.3 mg/kg with Balb/c mice and in the experiment on Lewis rats were 32% and 7%, respectively.

Regarding `C#CC[C@@H](O)/C=C/C=C/[C@@H]1C[C@@H]1[C@@H](O)CCCC(=O)O` [Compound 321], the inhibition in vivo at 0.3 mg/kg with Balb/c mice was determined as 32%; with Lewis rats, 10%. Regarding `O=C(O)CCC[C@H](O)C#C/C=C/C=C/[C@H](O)CC#Cc1ccc(F)cc1` [Compound 306], the inhibition in vivo at 0.3 mg/kg in the experiment on Balb/c mice amounted to 16%. As for `O=C(O)CCC[C@H](O)C#C/C=C/C=C/[C@H](O)CC#Cc1ccc(Cl)c(Cl)c1` [Compound 314], the inhibition in vivo at 0.3 mg/kg worked out at 28% in the experiment on Balb/c mice and 27% with Lewis rats. In the same order, the values of `O=C(O)CCC[C@H](O)C#C/C=C/C=C/[C@H](O)CC1CC1` [Compound 304] are 20% and 28%.

(Values after patent US20110245528A1, “THERAPEUTIC COMPOUNDS” (priority 2008, published 2011).)
